Data on six molecules can be found in patent US20040247571A1, “Neural cells expressing tyrosine hydroxylase” (priority 2001, published 2004).

B1: IL-1α: Interleukin (protein, UniProt P01583 113-271, looked up)
Interleukin-1 alpha: SAPFSFLSNVKYNFMRIIKYEFILNDALNQSIIRANDQYLTAAALHNLDEAVKFDMGAYKSSKDDAKITVILRISKTQLYVTAQDEDQPVLLKEMPEIPKTITGSETNLLFFWETHGTKNYFTSVAHPNLFIATKQDYWVCLAGGPPSITDFQILENQA
B2: GDNF: Glial cell-line Derived Neurotrophic Factor (protein, UniProt P39905 78-211, looked up)
Glial cell line-derived …: SPDKQMAVLPRRERNRQAAAANPENSRGKGRRGQRGKNRGCVLTAIHLNVTDLGLGYETKEELIFRYCSGSCDAAETTYDKILKNLSRNRRLVSDKVGQACCRPIAFDDDLSFLDDNLVYHILRKHSAKRCGCI

For one test, the system named is Human neural progenitor cells expanded in EGF/bFGF/LIF (991013FBr). The test is described as follows: Importance of the various factors for TH induction. It counts as cell-based. The following applies: one factor omitted from the cocktail of Example 1, 3 days. The method, then: Cultures of human neural progenitors established from human fetal forebrain expanded in N2 medium supplemented with EGF/bFGF/LIF or EGF/bFGF/CNTF as indicated were mechanically passaged and maintained in expansion medium for 5-7 days. The small spheres were then plated on glass coverslips coated with poly-L-lysine (PLL, 100 μg/ml) and laminin (50 μg/ml) at a cell density of 100.000 cells/cm^2 in N2 medium containing 1% FBS for “default differentiation” or in N2 medium supplemented with aFGF (100 ng/ml), BDNF (50 ng/ml), forskolin (25 μM), DA (10 μM), TPA (100 nM), dbcAMP (100 μM), GDNF (20 ng/ml), IGFI (100 ng/ml), IL-1α (200 pg/ml). N2 medium consists of DMEM:F12 (1:1) supplemented with N2 (insulin, transferrin, selenium, progesterone and putrescine), 0.6% glucose and 5 mM HEPES. After 3 days incubation, cells were fixed in 4% paraformaldehyde in PBS for 20 min at room temperature. The cells were washed three times with PBS, followed by overnight incubation with primary antibody (rabbit anti-TH, PelFreez 1:100 or Chemicon 1:800) diluted in PBS incubation buffer which contained 10% normal goat serum, 0.3% Triton X-100 (Sigma) and 1% BSA at 4° C. in a humidified chamber. The cells were washed with PBS, and incubated for 1 hr at room temperature in the dark with secondary antibody (anti-rabbit Cy3, (Chemicon 1:500) diluted in incubation buffer. After washing with PBS, nuclei were counterstained with DAPI or Hoechst 33342. Negative controls (omission of the primary antibody) were included in each experiment.
To quantify the percentage of TH cells, cells were counted in at least three fields from three to six independent coverslips randomly chosen using a 20× objective. The number of TH-immunoreactive cells in each field was counted. The total cell number was obtained by counting nuclei counterstained with DAPI or Hoechst 33342.
Human neural progenitor cells expanded in EGF/bFGF/LIF (991013FBr) cells were seeded as small spheres (5 days after trituration to single cell suspension) on PLL/laminin coated 12 mm coverslips at a cell density of 100.000 cells/cm^2 in N2 medium containing different combinations of the factors described in Example 1. After incubation for 3 days, cells were fixed in 4% PFA and immunostained for TH as described in Example 1.
Take “IGF-I: Insulins (IGF-I, IGF-II, insulin)”: the “effect of omitting the factor from the cocktail on induction of TH positive cells” value was “did not affect induction of TH positive cells”.
Still for that read-out and setting: in the case of BDNF: Brain Derived Neurotrophic Factor it was “did not affect induction of TH positive cells”; in that of `NCCc1ccc(O)c(O)c1` [dopamine, reference compound], “did not affect induction of TH positive cells”.
Still for that read-out and setting: then B1, with “did not affect induction of TH positive cells”; and B2, with “did not affect induction of TH positive cells”.

The same test, now with this note: same concentration (100 ng/ml), 3 days.
Turning to “FGF-2/bFGF: basic fibroblast growth factor”, the “effect of replacing FGF-1/aFGF in the cocktail on TH immunoreactive cells” value was “without any effect on numbers or morphology of TH immunoreactive cells”.
